Structures are written as SMILES. Structures can show the parent of a compound that is named as a salt.

The target in this test is T1, recombinant human cytosolic PEPCK (GST-PEPCK) (Homo sapiens, UniProt P35558).
T1 construct: made in house; host or cells: E. coli
T1 sequence (P35558 1-622): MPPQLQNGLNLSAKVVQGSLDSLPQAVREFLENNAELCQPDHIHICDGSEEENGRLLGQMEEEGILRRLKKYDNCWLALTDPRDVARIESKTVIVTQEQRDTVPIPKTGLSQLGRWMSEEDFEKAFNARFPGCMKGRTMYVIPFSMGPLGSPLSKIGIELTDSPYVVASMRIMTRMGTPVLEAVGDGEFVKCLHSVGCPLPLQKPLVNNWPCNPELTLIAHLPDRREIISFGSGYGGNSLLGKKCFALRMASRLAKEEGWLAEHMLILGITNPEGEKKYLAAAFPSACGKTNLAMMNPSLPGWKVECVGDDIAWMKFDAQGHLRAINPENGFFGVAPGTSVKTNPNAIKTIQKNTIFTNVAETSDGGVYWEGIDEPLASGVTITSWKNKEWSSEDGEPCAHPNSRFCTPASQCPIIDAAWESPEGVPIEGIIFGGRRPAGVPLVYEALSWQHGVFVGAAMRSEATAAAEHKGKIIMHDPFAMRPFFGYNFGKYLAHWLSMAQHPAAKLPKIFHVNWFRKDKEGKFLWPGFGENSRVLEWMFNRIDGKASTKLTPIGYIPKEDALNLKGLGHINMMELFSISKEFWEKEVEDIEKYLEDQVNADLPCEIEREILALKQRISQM
Kind of test: PEPCK enzyme assay (coupled to pyruvate kinase / lactate dehydrogenase, absorbance at 340 nm). In kind it is biochemical. Conditions: in vitro PEPCK enzymatic assay; GTP at 3 fold and OAA at 10 fold Km; final DMSO 10%; room temperature, twenty minutes. As for the experimental part: E. coli cells expressing GST-PEPCK were suspended in 5 volumes of lysis buffer (50 mM Tris-hydroxymethyl aminomethyl (TRIS), 150 mM sodium chloride (NaCl), 10 mM ethylene-diametetraacetic acid (EDTA), 5 mM dithiothreitol(DTT), 1% Nonidet P-40, pH 7.4) in the presence of protease inhibitors, incubated with lysozyme at 200 micrograms/ml for 30 min. at room temperature, and sonicated 4×30 seconds at 4 degrees C. After centrifugation at 12,000×g for 20 min. to remove insoluble material, the supernatant was loaded onto glutathione Sepharose (Pharmacia), washed with lysis buffer followed by washing with lysis buffer in the absence of NP-40. GST-PEPCK was eluted with the same buffer containing 20 mM glutathione. The eluted protein was concentrated and dialyzed against 25 mM Hepes(N-[2-hydroxyethyl]piperazine-N′[2-ethanesulfonic acid), 150 mM NaCl, 2.5 mM EDTA, 5 mM DTT, 30% glycerol, pH 7.4, and stored at −20° C.
The inhibitory effect of the compounds of the present invention on PEPCK enzymatic activity was determined using recombinant human cytosolic PEPCK, expressed and purified from E.coli as a GST-fusion. Guanosine triphosphate (GTP) and manganese dependent PEPCK enzyme activity catalyzed the decarboxylation of oxalacetate leading to the formation of guanosine diphosphate (GDP) and phosphoenol pyruvate (PEP). This reaction is coupled to pyruvate kinase and lactate dehydrogenase catalyzed reactions and the overall reaction rate determined by measuring the change in absorbance at 340 nm (Chang, H. C. and Lane M. D., J. Biol. Chem. 241:2413–2420, 1966). The following modifications were made to the protocol: 2.5 μg of recombinant, human cytosolic glutathione-S-transferase (GST)-PEPCK was added to a reaction mixture at room temperature which contained 0.3 mM GTP, 0.3 mM oxaloacetate (OAA), 3 mM magnesium chloride (MgCl2), 0.075 mM manganese chloride (MnCl2), 30 mM potassium phosphates (KPO4), pH 7.6, 1 mM dithiothreitol (DTT), 0.2 mM adenosine diphosphate (ADP), 1 mM nicotinamide adenine dinucleotide, reduced form (NADH), 0.9 Units/ml each of pyruvate kinase and lactate dehydrogenase and 1 mg/ml bovine serum albumin (BSA). Test compounds were added such that final concentration of DMSO was 10%. Reactions were run for twenty minutes.
Km values for GTP and OAA were determined according to Michelis-Menton conditions as described in Comish-Bowden (Fundamentals of Enzyme Kinetics, 1995) in essentially the coupled assay conditions described above. […] Test compounds were added to reactions over a range of concentrations and IC50's were calculated from plots of inhibitor concentration versus enzyme rate. This method of determination of IC50 values is equally applicable to calculations based on PEPCK cellular assay.
Turning to `Cc1nn(C)c(Cl)c1S(=O)(=O)Nc1ccc(Cc2nc3c([nH]2)c(=O)n(Cc2ccccc2F)c(=O)n3CC2CC2)cc1` [Example 1, 5-Chloro-1,3-dimethyl-1H-pyrazole-4-sulfonic acid {4-[3-cyclopropylmethyl-1-(2-fluoro-benzyl)-2,6-dioxo-2,3,6,7-tetrahydro-1H-purin-8-ylmethyl]-phenyl}-amide], the IC50 was 290 nM.
Turning to `Cn1cc(S(=O)(=O)Nc2ccc(Cc3nc4c([nH]3)c(=O)n(Cc3ccccc3F)c(=O)n4CC3CC3)cc2)cn1` [Example 2, 1-Methyl-1H-pyrazole-4-sulfonic acid {4-[3-cyclopropylmethyl-1-(2-fluoro-benzyl)-2,6-dioxo-2,3,6,7-tetrahydro-1H-purin-8-ylmethyl]-phenyl}-amide], the IC50 worked out at 390 nM.
`COc1cccc(S(=O)(=O)Nc2ccc(Cc3nc4c([nH]3)c(=O)n(Cc3ccccc3F)c(=O)n4CC3CC3)cc2)c1` [Example 3, N-{4-[3-Cyclopropylmethyl-1-(2-fluoro-benzyl)-2,6-dioxo-2,3,6,7-tetrahydro-1H-purin-8-ylmethyl]-phenyl}-3-methoxy-benzenesulfonamide]: the IC50 worked out at 1200 nM.
Take `O=c1c2[nH]c(Cc3ccc(NS(=O)(=O)c4cccc(F)c4)cc3)nc2n(CC2CC2)c(=O)n1Cc1ccccc1F` [Example 4, N-{4-[3-Cyclopropylmethyl-1-(2-fluoro-benzyl)-2,6-dioxo-2,3,6,7-tetrahydro-1H-purin-8-ylmethyl]-phenyl}-3-fluoro-benzenesulfonamide]: the IC50 was determined as 2550 nM.
As for `O=c1c2[nH]c(Cc3ccc(NS(=O)(=O)c4cnc(Cl)c(Br)c4)cc3)nc2n(CC2CC2)c(=O)n1Cc1ccccc1F` [Example 5, 5-Bromo-6-chloro-pyridine-3-sulfonic acid {4-[3-cyclopropylmethyl-1-(2-fluoro-benzyl)-2,6-dioxo-2,3,6,7-tetrahydro-1H-purin-8-ylmethyl]-phenyl}-amide], the figure is 4580 nM.
Consider `Cc1nn(C)c(Cl)c1S(=O)(=O)Nc1cccc(Cc2nc3c([nH]2)c(=O)n(Cc2ccccc2F)c(=O)n3CC2CC2)c1` [Example 6, 5-Chloro-1,3-dimethyl-1H-pyrazole-4-sulfonic acid {3-[3-cyclopropylmethyl-1-(2-fluoro-benzyl)-2,6-dioxo-2,3,6,7-tetrahydro-1H-purin-8-ylmethyl]-phenyl}-amide], for which the IC50 was determined as 1100 nM.
As for `Cc1nn(C)cc1S(=O)(=O)Nc1ccc(Cc2nc3c([nH]2)c(=O)n(Cc2ccccc2F)c(=O)n3CC2CC2)cc1` [Example 7, 1,3-Dimethyl-1H-pyrazole-4-sulfonic acid {4-[3-cyclopropylmethyl-1-(2-fluoro-benzyl)-2,6-dioxo-2,3,6,7-tetrahydro-1H-purin-8-ylmethyl]-phenyl}-amide], the figure is 150 nM; as for `CC(=O)Nc1nc(C)c(S(=O)(=O)Nc2ccc(Cc3nc4c([nH]3)c(=O)n(Cc3ccccc3F)c(=O)n4CC3CC3)cc2)s1` [Example 10, N-(5-{4-[3-Cyclopropylmethyl-1-(2-fluoro-benzyl)-2,6-dioxo-2,3,6,7-tetrahydro-1H-purin-8-ylmethyl]-phenylsulfamoyl}-4-methyl-thiazol-2-yl)-acetamide], 220 nM.
As for `Cc1nc(N)sc1S(=O)(=O)Nc1ccc(Cc2nc3c([nH]2)c(=O)n(Cc2ccccc2F)c(=O)n3CC2CC2)cc1` [Example 11, 2-Amino-4-methyl-thiazole-5-sulfonic acid {4-[3-cyclopropylmethyl-1-(2-fluoro-benzyl)-2,6-dioxo-2,3,6,7-tetrahydro-1H-purin-8-ylmethyl]-phenyl}-amide trifluoro-acetic acid salt], the figure is 230 nM; as for `Cc1noc(C)c1S(=O)(=O)Nc1ccc(Cc2nc3c([nH]2)c(=O)n(Cc2ccccc2F)c(=O)n3CC2CC2)cc1` [Example 12, 3,5-Dimethyl-isoxazole-4-sulfonic acid {4-[3-cyclopropylmethyl-1-(2-fluoro-benzyl)-2,6-dioxo-2,3,6,7-tetrahydro-1H-purin-8-ylmethyl]-phenyl}-amide], 790 nM.
As for `Cc1nc(S(=O)(=O)Nc2ccc(Cc3nc4c([nH]3)c(=O)n(Cc3ccccc3F)c(=O)n4CC3CC3)cc2)cn1C` [Example 13, 1,2-Dimethyl-1H-imidazole-4-sulfonic acid {4-[3-cyclopropylmethyl-1-(2-fluoro-benzyl)-2,6-dioxo-2,3,6,7-tetrahydro-1H-purin-8-ylmethyl]-phenyl}-amide], the figure is 340 nM; as for `Cn1cnc(S(=O)(=O)Nc2ccc(Cc3nc4c([nH]3)c(=O)n(Cc3ccccc3F)c(=O)n4CC3CC3)cc2)c1` [Example 14, 1-Methyl-1H-imidazole-4-sulfonic acid {4-[3-cyclopropylmethyl-1-(2-fluoro-benzyl)-2,6-dioxo-2,3,6,7-tetrahydro-1H-purin-8-ylmethyl]-phenyl}-amide], 410 nM; as for `CN(C)S(=O)(=O)Nc1ccc(Cc2nc3c([nH]2)c(=O)n(Cc2ccccc2F)c(=O)n3CC2CC2)cc1` [Example 17, N-{4-[3-Cyclopropylmethyl-1-(2-fluoro-benzyl)-2,6-dioxo-2,3,6,7-tetrahydro-1H-purin-8-ylmethyl]-phenyl}-N,N-dimethylsulfamide], 960 nM.
On to `Cc1nn(C)c(Cl)c1S(=O)(=O)N(C)c1ccc(Cc2nc3c([nH]2)c(=O)n(Cc2ccccc2F)c(=O)n3CC2CC2)cc1` [Example 18, 5-Chloro-1,3-dimethyl-1H-pyrazole-4-sulfonic acid {4-[3-cyclopropylmethyl-1-(2-fluoro-benzyl)-2,6-dioxo-2,3,6,7-tetrahydro-1H-purin-8-ylmethyl]-phenyl}-methyl-amide], for which the IC50 turned out to be 2050 nM.
As for `O=c1c2[nH]c(Cc3ccc(NS(=O)(=O)c4cccc5cccnc45)cc3)nc2n(CC2CC2)c(=O)n1Cc1ccccc1F` [Example 19, Quinoline-8-sulfonic acid {4-[3-cyclopropylmethyl-1-(2-fluoro-benzyl)-2,6-dioxo-2,3,6,7-tetrahydro-1H-purin-8-ylmethyl]-phenyl}-amide], the figure is 450 nM; as for `CC(=O)Nc1ccc(S(=O)(=O)Nc2ccc(Cc3nc4c([nH]3)c(=O)n(Cc3ccccc3F)c(=O)n4CC3CC3)cc2)cc1` [Example 20, N-(4-{4-[3-Cyclopropylmethyl-1-(2-fluoro-benzyl)-2,6-dioxo-2,3,6,7-tetrahydro-1H-purin-8-ylmethyl]-phenylsulfamoyl}-phenyl)-acetamide], 6250 nM; as for `CCCCn1c(=O)n(Cc2ccccc2)c(=O)c2[nH]c(Cc3ccc(NS(=O)(=O)c4ccc(C)cc4)cc3)nc21` [Example 21, N-[4-(1-Benzyl-3-butyl-2,6-dioxo-2,3,6,7-tetrahydro-1H-purin-8-ylmethyl)-phenyl]-4-methyl-benzenesulfonamide], 7650 nM.
As for `O=c1c2[nH]c(Cc3ccc(NS(=O)(=O)c4cccnc4)cc3)nc2n(CC2CC2)c(=O)n1Cc1ccccc1F` [Example 22, Pyridine-3-sulfonic acid {4-[3-cyclopropylmethyl-1-(2-fluoro-benzyl)-2,6-dioxo-2,3,6,7-tetrahydro-1H-purin-8-ylmethyl]-phenyl}-amide trifluoro-acetic acid salt], the figure is 1950 nM.

For orientation: IC50 means the concentration at which inhibition is half-maximal.

The record behind these values is patent US7148229B2, “Sulfonamide substituted xanthine derivatives” (Hoffman-La Roche Inc., priority 2003, dated 2006).
